Experimental data reported in PubChem BioAssay AID256 (DTP/NCI, 2004).
Several values for one entry are separate records, joined by “and”; a condition that tells them apart may be missing. Equal values may be shown once. Inconclusive results and toxic doses are left out. Rule for the calls: active = survival T/C of 150% or more; inactive = T/C below 125% in these data.

Test system: CD2F1 mice, L1210 leukemia ip, survival T/C
Assay: NCI In Vivo Anticancer Drug Screen. Data for tumor model L1210 Leukemia (intraperitoneal) in CD2F1 (CDF1) mice
Details: higher = longer survival
Method in brief: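 Tumor-bearing mice (transplanted tumor) were split into treated and vehicle control groups, and the measured endpoint of each treated group was divided by that of its vehicle controls.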

[1] = endpoint: mean survival time, dose: 12.5 mg/kg/injection, schedule: Q01DX009 (ip), vehicle: saline
[2] = endpoint: mean survival time, dose: 100.0 mg/kg/injection, schedule: Q04DX003 (ip), vehicle: saline with Tween-80
[3] = endpoint: mean survival time, dose: 200.0 mg/kg/injection, schedule: Q04DX003 (ip), vehicle: saline with Tween-80
[4] = endpoint: mean survival time, dose: 400.0 mg/kg/injection, schedule: Q04DX003 (ip), vehicle: saline with Tween-80
[5] = endpoint: mean survival time, dose: 100.0 mg/kg/injection, schedule: Q01DX001 (ip), vehicle: saline with Tween-80
[6] = endpoint: mean survival time, dose: 200.0 mg/kg/injection, schedule: Q01DX001 (ip), vehicle: saline with Tween-80
[7] = endpoint: mean survival time, dose: 400.0 mg/kg/injection, schedule: Q01DX001 (ip), vehicle: saline with Tween-80
[8] = endpoint: mean survival time, dose: 100.0 mg/kg/injection, schedule: Q01DX009 (ip), vehicle: saline
[9] = endpoint: mean survival time, dose: 200.0 mg/kg/injection, schedule: Q01DX009 (ip), vehicle: saline
[10] = endpoint: mean survival time, dose: 400.0 mg/kg/injection, schedule: Q01DX009 (ip), vehicle: saline
[11] = endpoint: mean survival time, dose: 100.0 mg/kg/injection, schedule: Q04DX002 (ip), vehicle: saline with Tween-80
[12] = endpoint: mean survival time, dose: 100.0 mg/kg/injection, schedule: Q01DX009 (ip), vehicle: saline with Tween-80
[13] = endpoint: mean survival time, dose: 200.0 mg/kg/injection, schedule: Q01DX009 (ip), vehicle: saline with Tween-80
[14] = endpoint: mean survival time, dose: 400.0 mg/kg/injection, schedule: Q01DX009 (ip), vehicle: saline with Tween-80
[15] = endpoint: mean survival time, dose: 100.0 mg/kg/injection, schedule: Q04DX003 (ip), vehicle: Klucel (hydroxypropylcellulose) (HPC)
[16] = endpoint: mean survival time, dose: 200.0 mg/kg/injection, schedule: Q04DX003 (ip), vehicle: Klucel (hydroxypropylcellulose) (HPC)
[17] = endpoint: mean survival time, dose: 50.0 mg/kg/injection, schedule: Q01DX009 (ip), vehicle: saline with Tween-80
[18] = endpoint: mean survival time, dose: 50.0 mg/kg/injection, schedule: Q04DX003 (ip), vehicle: saline with Tween-80

Measured: T/C

OCCN1CCN(CC/C=C2\c3ccccc3Sc3ccc(Cl)cc32)CC1
inactive: endpoint: mean survival time, dose: 3.12 mg/kg/injection, schedule: Q01DX009 (ip), vehicle: saline 102 % of control | endpoint: mean survival time, dose: 6.25 mg/kg/injection, schedule: Q01DX009 (ip), vehicle: saline 116 % of control | [1] 122 % of control

CCOC1=C([N+](=O)[O-])C(c2ccccc2)NC1=O (stereo not given)
inactive: [2] 95 % of control | [3] 95 % of control | [4] 89 % of control

OC1(C#CCC2(O)CCCCC2)CCCCC1
inactive: [5] 91 % of control | [6] 91 % of control | [7] 93 % of control

COc1ccc2c(ccc3nc(C)[nH]c(=O)c32)c1
inactive: endpoint: mean survival time, dose: 25.0 mg/kg/injection, schedule: Q01DX001 (ip), vehicle: Klucel (hydroxypropylcellulose) (HPC) 102 % of control | endpoint: mean survival time, dose: 50.0 mg/kg/injection, schedule: Q01DX001 (ip), vehicle: Klucel (hydroxypropylcellulose) (HPC) 94 % of control | endpoint: mean survival time, dose: 100.0 mg/kg/injection, schedule: Q01DX001 (ip), vehicle: Klucel (hydroxypropylcellulose) (HPC) 90 % of control

Nc1ccc(Br)cc1
inactive: [2] 97 % of control | [3] 100 % of control | [4] 87 % of control

FC(F)(F)c1nc2nc(Cl)c(Cl)nc2[nH]1
inactive: endpoint: mean survival time, dose: 10.0 mg/kg/injection, schedule: Q01DX009 (ip), vehicle: saline with Tween-80 97 % of control | [1] 102 % of control | endpoint: mean survival time, dose: 20.0 mg/kg/injection, schedule: Q01DX009 (ip), vehicle: saline with Tween-80 106 % of control | endpoint: mean survival time, dose: 25.0 mg/kg/injection, schedule: Q01DX009 (ip), vehicle: saline 101 % of control | [8] 107 % of control | endpoint: median survival time, dose: 30.0 mg/kg/injection, schedule: Q04DX003 (ip), vehicle: saline with Tween-80 106 % of control | endpoint: median survival time, dose: 44.0 mg/kg/injection, schedule: Q04DX003 (ip), vehicle: saline with Tween-80 106 % of control | endpoint: median survival time, dose: 66.0 mg/kg/injection, schedule: Q04DX003 (ip), vehicle: saline with Tween-80 110 % of control

COc1ccc(-c2nc(N)ncc2C)cc1
inactive: endpoint: mean survival time, dose: 100.0 mg/kg/injection, schedule: Q04DX002 (ip), vehicle: other 96 % of control | endpoint: mean survival time, dose: 200.0 mg/kg/injection, schedule: Q04DX002 (ip), vehicle: other 96 % of control | endpoint: mean survival time, dose: 400.0 mg/kg/injection, schedule: Q04DX002 (ip), vehicle: other 101 % of control

COC(=O)c1ccncc1
inactive: [8] 102 % of control | [9] 108 % of control | [10] 100 % of control

CCCCCCCCCC(=O)NCC[N+](C)(C)C
inactive: endpoint: mean survival time, dose: 5.0 mg/kg/injection, schedule: Q01DX001 (ip), vehicle: saline 107 % of control | endpoint: mean survival time, dose: 10.0 mg/kg/injection, schedule: Q01DX001 (ip), vehicle: saline 102 % of control | endpoint: mean survival time, dose: 20.0 mg/kg/injection, schedule: Q01DX001 (ip), vehicle: saline 103 % of control | endpoint: mean survival time, dose: 40.0 mg/kg/injection, schedule: Q01DX001 (ip), vehicle: saline 103 % of control | endpoint: mean survival time, dose: 80.0 mg/kg/injection, schedule: Q01DX001 (ip), vehicle: saline 103 % of control

CN(C)c1nc(-c2ccncc2)nc(N(C)C)n1
inactive: [11] 92 % of control

O=c1ccn(Cc2cccc([N+](=O)[O-])c2)c(=O)[nH]1
inactive: [12] 106 % of control | [13] 104 % of control | [14] 102 % of control

c1cc[c]([Ge]([O][Ge]([c]2ccccc2)([c]2ccccc2)[c]2ccccc2)([c]2ccccc2)[c]2ccccc2)cc1
inactive: endpoint: mean survival time, dose: 50.0 mg/kg/injection, schedule: Q04DX003 (ip), vehicle: Klucel (hydroxypropylcellulose) (HPC) 96 % of control | [15] 96 % of control | [16] 96 % of control

Cc1ccc(S(=O)(=O)OC(c2ccc(C(OS(=O)(=O)c3ccc(C)cc3)(C(F)(F)F)C(F)(F)F)cc2)(C(F)(F)F)C(F)(F)F)cc1
inactive: [5] 96 % of control | [6] 95 % of control | [7] 90 % of control

O=C(O)c1cnc2cc(Cl)ccc2n1
inactive: [17] 103 % of control | [12] 103 % of control | [2] 98 % of control | [3] 100 % of control

CC(O)CN1CC(C)OC(C)C1 (stereo not given)
inactive: [8] 100 % of control | endpoint: mean survival time, dose: 100.0 mg/kg/injection, schedule: Q04DX003 (ip), vehicle: saline 103 % of control | [9] 100 % of control | endpoint: mean survival time, dose: 200.0 mg/kg/injection, schedule: Q04DX003 (ip), vehicle: saline 103 % of control | [10] 100 % of control | endpoint: mean survival time, dose: 400.0 mg/kg/injection, schedule: Q04DX003 (ip), vehicle: saline 101 % of control

CN1CCC(CNC(=O)CCCCCCCCC(=O)NCC2(c3ccccc3)CCN(C)CC2)(c2ccccc2)CC1
inactive: endpoint: mean survival time, dose: 1.25 mg/kg/injection, schedule: Q04DX003 (ip), vehicle: saline with Tween-80 95 % of control | endpoint: mean survival time, dose: 2.5 mg/kg/injection, schedule: Q04DX003 (ip), vehicle: saline with Tween-80 94 % of control

CCC(c1ccc2cc(OC)ccc2c1)C(C(=O)O)C(=O)O (stereo not given)
inactive: [15] 95 % of control | [16] 93 % of control

CCOC(=O)c1ccc(NC(=O)Nc2cccc(NC(C)=O)c2)cc1
inactive: endpoint: mean survival time, dose: 50.0 mg/kg/injection, schedule: Q01DX001 (ip), vehicle: saline with Tween-80 96 % of control | [17] 87 % of control and 91 % of control | [18] 90 % of control | [5] 92 % of control | [12] 87 % of control and 91 % of control | [11] 87 % of control and 90 % of control | [2] 86 % of control | [6] 96 % of control | [13] 91 % of control | endpoint: mean survival time, dose: 200.0 mg/kg/injection, schedule: Q04DX002 (ip), vehicle: saline with Tween-80 91 % of control | [3] 100 % of control | [7] 92 % of control

C1N2CN3CN1CN(C2)C3.[Cl][Pt][Cl]
inactive: endpoint: mean survival time, dose: 25.0 mg/kg/injection, schedule: Q04DX003 (ip), vehicle: saline with Tween-80 123 % of control | [18] 101 % of control | [2] 98 % of control

O=C(COc1ccc(Cl)cc1Cl)Nc1ccc(F)cc1
inactive: [2] 88 % of control | [3] 90 % of control | [4] 89 % of control

Cc1ccc(C)c(NC(=O)c2cccc(Cl)c2)c1
inactive: [12] 89 % of control | [2] 94 % of control | [13] 94 % of control | [3] 94 % of control | [14] 102 % of control | [4] 94 % of control

N#Cc1cn(C2OC(CO)C(O)C2O)c2[nH]cnc(=S)c12 (stereo not given)
inactive: endpoint: mean survival time, dose: 100.0 mg/kg/injection, schedule: Q01DX001 (ip), vehicle: saline 103 % of control | endpoint: mean survival time, dose: 200.0 mg/kg/injection, schedule: Q01DX001 (ip), vehicle: saline 108 % of control | endpoint: mean survival time, dose: 400.0 mg/kg/injection, schedule: Q01DX001 (ip), vehicle: saline 109 % of control

CCOc1nc(=O)n(C2OC(CO)C(O)C2O)s1 (stereo not given)
inactive: endpoint: mean survival time, dose: 12.5 mg/kg/injection, schedule: Q01DX005 (ip), vehicle: distilled water + Tween-80 100 % of control | endpoint: mean survival time, dose: 25.0 mg/kg/injection, schedule: Q01DX005 (ip), vehicle: distilled water + Tween-80 101 % of control | endpoint: mean survival time, dose: 50.0 mg/kg/injection, schedule: Q01DX005 (ip), vehicle: distilled water + Tween-80 101 % of control | endpoint: mean survival time, dose: 100.0 mg/kg/injection, schedule: Q01DX005 (ip), vehicle: distilled water + Tween-80 97 % of control | endpoint: mean survival time, dose: 200.0 mg/kg/injection, schedule: Q01DX005 (ip), vehicle: distilled water + Tween-80 102 % of control
